Experimental data as given in patent US6737383B1, “Herbicidal oxadiazolidines” (priority 1999, dated 2004).

Experiments:
surinam grass = test: Test B pre/postemergence surinam grass; format: in vivo, Brachiaria decumbens; details: for B. signalgrass plant response rating: scale of 0 to 10 where 0 is no effect and 10 is complete control
How it was run: (§1)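 Herbicidal effect was estimated by eye on a ten-point control scale after plants spent twelve to sixteen days in a greenhouse following soil or foliar treatment. Foliar sprays targeted plants at one to four leaves; all doses were formulated in a non-phytotoxic solvent with surfactant.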

bamyardgrass = test: Test B flood test barnyardgrass; format: in vivo, Echinochloa crus-galli
Protocol: (§2) At the same time, these crop and weed species were also treated with postemergence applications of test chemicals formulated in the same manner. Plants ranged in height from 2 to 18 cm (1- to 4-leaf stage) for postemergence treatments. Plant species in the flood test consisted of rice (Oryza sativa), smallflower flatsedge (Cyperus difformis), duck salad (Heteranthera limosa) and bamyardgrass (Echinochloa crus-galli) grown to the 2-leaf stage for testing. Treated plants and controls were maintained in a greenhouse for twelve to sixteen days, after which all species were compared to controls and visually evaluated. Plant response ratings, summarized in Table B, are based on a scale of 0 to 10 where 0 is no effect and 10 is complete control. A dash (−) response means no test result.

smallflower flatsedge = test: Test B flood test smallflower flatsedge; format: in vivo, Cyperus difformis
Protocol: as §2

duck salad = test: Test B flood test duck salad; format: in vivo, Heteranthera limosa
How it was run: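 Plants were grown to the 2-leaf stage before treatment with test chemical, then held in a greenhouse for twelve to sixteen days. Injury was visually rated against untreated controls on a 0–10 scale, where 0 is no effect and 10 is complete control.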

giant foxtail = test: Test B pre/postemergence giant foxtail; format: in vivo, Setaria faberii; details: for Giant foxtail plant response rating: scale of 0 to 10 where 0 is no effect and 10 is complete control
How it was run: as §1

rape = test: Test B pre/postemergence rape; format: in vivo, Brassica napus; details: for Rape plant response rating: scale of 0 to 10 where 0 is no effect and 10 is complete control
How it was run: as §1

morningglory = test: Test B pre/postemergence morningglory; format: in vivo, Ipomoea hederacea; details: for Morningglory plant response rating: scale of 0 to 10 where 0 is no effect and 10 is complete control
How it was run: as §1

velvetleaf = test: Test B pre/postemergence velvetleaf; format: in vivo, Abutilon theophrasti; details: for Velvetleaf plant response rating: scale of 0 to 10 where 0 is no effect and 10 is complete control
How it was run: as §1

pigweed = test: Test B pre/postemergence pigweed; format: in vivo, Amaranthus retroflexus; details: for Redroot pigweed plant response rating: scale of 0 to 10 where 0 is no effect and 10 is complete control
How it was run: as §1

blackgrass = test: Test B pre/postemergence blackgrass; format: in vivo, Alopecurus myosuroides; details: for Blackgrass plant response rating: scale of 0 to 10 where 0 is no effect and 10 is complete control
How it was run: as §1

cocklebur = test: Test B pre/postemergence cocklebur; format: in vivo, Xanthium strumarium; details: for Cocklebur plant response rating: scale of 0 to 10 where 0 is no effect and 10 is complete control
How it was run: as §1

sugar beet = test: Test B pre/postemergence sugar beet; format: in vivo, Beta vulgaris; details: for Sugarbeets plant response rating: scale of 0 to 10 where 0 is no effect and 10 is complete control
How it was run: as §1

soybean = test: Test B pre/postemergence soybean; format: in vivo, Glycine max; details: for Soybean plant response rating: scale of 0 to 10 where 0 is no effect and 10 is complete control
How it was run: as §1

corn = test: Test B pre/postemergence corn; format: in vivo, Zea mays; details: for Corn plant response rating: scale of 0 to 10 where 0 is no effect and 10 is complete control
How it was run: as §1

crabgrass = test: Test B pre/postemergence crabgrass; format: in vivo, Digitaria sanguinalis; details: for Crabgrass plant response rating: scale of 0 to 10 where 0 is no effect and 10 is complete control
How it was run: as §1

wheat = test: Test B pre/postemergence wheat; format: in vivo, Triticum aestivum; details: for Wheat plant response rating: scale of 0 to 10 where 0 is no effect and 10 is complete control
How it was run: as §1

bedstraw = test: Test B pre/postemergence bedstraw; format: in vivo, Galium aparine; details: for Bedstraw plant response rating: Rate 500 g/ha, scale of 0 to 10 where 0 is no effect and 10 is complete control
How it was run: as §1

wild oat = test: Test B pre/postemergence wild oat; format: in vivo, Avena fatua; details: for Wild oats plant response rating: scale of 0 to 10 where 0 is no effect and 10 is complete control
How it was run: as §1

purple nutsedge = test: Test B pre/postemergence purple nutsedge; format: in vivo, Cyperus rotundus; details: for Nutsedge plant response rating: scale of 0 to 10 where 0 is no effect and 10 is complete control
How it was run: as §1

[1] = Postemergence, Rate 125 g/ha, scale 0 to 10, 0 is no effect, 10 is complete control
[2] = Postemergence, Rate 250 g/ha, scale 0 to 10, 0 is no effect, 10 is complete control
[3] = Preemergence, Rate 62 g/ha, scale 0 to 10 (0 no effect, 10 complete control)
[4] = Rate 62 g/ha, flood test species, Pre-emergence, visual evaluation after twelve to sixteen days
[5] = Rate 125 g/ha, under heading Pre-emergence, flood test species, visual evaluation after twelve to sixteen days
[6] = Rate 250 g/ha, Pre-emergence, flood-test species, scale 0 to 10, 0 is no effect, 10 is complete control
[7] = Rate 500 g/ha, Pre-emergence, flood test species, scale 0 to 10 (0 no effect, 10 complete control)

Structure (SMILES): CCCCCCn1c(=O)on(C(=O)N(c2ccc(F)cc2)C(C)C)c1=O [Compound 389]
- Plant response rating, B. signalgrass (surinam grass; [1]): 0
- Plant response rating, B. signalgrass (surinam grass; [2]): 0
- B. signalgrass plant response rating (surinam grass; Postemergence, Rate 500 g/ha): 0
- Plant response rating, B. signalgrass (surinam grass; [3]): 0
- B. signalgrass plant response rating (0 to 10 scale, 0 is no effect, 10 is complete control) (surinam grass; Preemergence, Rate 125 g/ha): 0
- B. signalgrass plant response rating (surinam grass; Preemergence, Rate 250 g/ha): 0
- B. signalgrass plant response rating (surinam grass; Preemergence, Rate 500 g/ha): 4
- B. signalgrass plant response rating (surinam grass; Rate 62 g/ha, Postemergence): 0
- Plant response rating, Barnyardgrass (0 to 10 scale, 0 is no effect, 10 is complete control) (bamyardgrass; [4]): 0
- Barnyardgrass plant response rating (0 to 10 scale, 0 is no effect, 10 is complete control) (bamyardgrass; [5]): 0
- Barnyardgrass plant response rating (bamyardgrass; [6]): 0
- Barnyardgrass plant response rating (bamyardgrass; [7]): 0
- Plant response rating, S. Flatsedge (0 to 10 scale, 0 is no effect, 10 is complete control) (smallflower flatsedge; [4]): 0
- S. Flatsedge plant response rating (0 to 10 scale, 0 is no effect, 10 is complete control) (smallflower flatsedge; [5]): 0
- S. Flatsedge plant response rating (smallflower flatsedge; [6]): 0
- S. Flatsedge plant response rating (smallflower flatsedge; [7]): 0
- Plant response rating, Ducksalad (0 to 10 scale, 0 is no effect, 10 is complete control) (duck salad; [4]): 0
- Ducksalad plant response rating (0 to 10 scale, 0 is no effect, 10 is complete control) (duck salad; [5]): 0
- Ducksalad plant response rating (duck salad; [6]): 0
- Ducksalad plant response rating (duck salad; [7]): 3
- Plant response rating, Giant foxtail (giant foxtail; [1]): 2
- Plant response rating, Giant foxtail (giant foxtail; [2]): 7
- Giant foxtail plant response rating (giant foxtail; Postemergence, Rate 500 g/ha): 8
- Plant response rating, Giant foxtail (giant foxtail; [3]): 2
- Giant foxtail plant response rating (0 to 10 scale) (giant foxtail; Preemergence, Rate 125 g/ha): 8
- Giant foxtail plant response rating (giant foxtail; Preemergence, Rate 250 g/ha): 10
- Giant foxtail plant response rating (giant foxtail; Preemergence, Rate 500 g/ha): 10
- Giant foxtail plant response rating (giant foxtail; Rate 62 g/ha, Postemergence): 0
- Plant response rating, Rape (rape; [2]): 2
- Rape plant response rating (rape; Postemergence, Rate 500 g/ha): 4
- Plant response rating, Rape (rape; [3]): 0
- Rape plant response rating (0 to 10 scale) (rape; Preemergence, Rate 125 g/ha): 0
- Rape plant response rating (rape; Preemergence, Rate 250 g/ha): 0
- Rape plant response rating (rape; Preemergence, Rate 500 g/ha): 8
- Plant response rating, Morningglory (morningglory; [2]): 8
- Morningglory plant response rating (morningglory; Postemergence, Rate 500 g/ha): 10
- Plant response rating, Morningglory (morningglory; [3]): 0
- Morningglory plant response rating (0 to 10 scale) (morningglory; Preemergence, Rate 125 g/ha): 0
- Morningglory plant response rating (morningglory; Preemergence, Rate 250 g/ha): 0
- Morningglory plant response rating (morningglory; Preemergence, Rate 500 g/ha): 1
- Morningglory plant response rating (morningglory; Rate 62 g/ha, Postemergence): 2
- Plant response rating, Velvetleaf (velvetleaf; [2]): 0
- Velvetleaf plant response rating (velvetleaf; Postemergence, Rate 500 g/ha): 0
- Plant response rating, Velvetleaf (velvetleaf; [3]): 0
- Velvetleaf plant response rating (0 to 10 scale) (velvetleaf; Preemergence, Rate 125 g/ha): 0
- Velvetleaf plant response rating (velvetleaf; Preemergence, Rate 250 g/ha): 0
- Velvetleaf plant response rating (velvetleaf; Preemergence, Rate 500 g/ha): 2
- Velvetleaf plant response rating (velvetleaf; Rate 62 g/ha, Postemergence): 0
- Plant response rating, Redroot pigweed (pigweed; [2]): 0
- Redroot pigweed plant response rating (pigweed; Postemergence, Rate 500 g/ha): 7
- Plant response rating, Redroot pigweed (pigweed; [3]): 0
- Redroot pigweed plant response rating (0 to 10 scale) (pigweed; Preemergence, Rate 125 g/ha): 0
- Redroot pigweed plant response rating (pigweed; Preemergence, Rate 250 g/ha): 4
- Redroot pigweed plant response rating (pigweed; Preemergence, Rate 500 g/ha): 10
- Redroot pigweed plant response rating (pigweed; Rate 62 g/ha, Postemergence): 0
- Plant response rating, Blackgrass (blackgrass; [1]): 0
- Plant response rating, Blackgrass (blackgrass; [2]): 6
- Blackgrass plant response rating (blackgrass; Postemergence, Rate 500 g/ha): 6
- Plant response rating, Blackgrass (blackgrass; [3]): 0
- Blackgrass plant response rating (0 to 10 scale) (blackgrass; Preemergence, Rate 125 g/ha): 2
- Blackgrass plant response rating (blackgrass; Preemergence, Rate 250 g/ha): 6
- Blackgrass plant response rating (blackgrass; Preemergence, Rate 500 g/ha): 9
- Blackgrass plant response rating (blackgrass; Rate 62 g/ha, Postemergence): 0
- Plant response rating, Cocklebur (cocklebur; [1]): 0
- Plant response rating, Cocklebur (cocklebur; [2]): 0
- Cocklebur plant response rating (cocklebur; Postemergence, Rate 500 g/ha): 0
- Plant response rating, Cocklebur (cocklebur; [3]): 0
- Cocklebur plant response rating (0 to 10 scale) (cocklebur; Preemergence, Rate 125 g/ha): 0
- Cocklebur plant response rating (cocklebur; Preemergence, Rate 250 g/ha): 0
- Cocklebur plant response rating (cocklebur; Preemergence, Rate 500 g/ha): 0
- Cocklebur plant response rating (cocklebur; Rate 62 g/ha, Postemergence): 0
- Plant response rating, Sugarbeets (sugar beet; [2]): 0
- Sugarbeets plant response rating (sugar beet; Postemergence, Rate 500 g/ha): 0
- Plant response rating, Sugarbeets (sugar beet; [3]): 0
- Sugarbeets plant response rating (0 to 10 scale) (sugar beet; Preemergence, Rate 125 g/ha): 0
- Sugarbeets plant response rating (sugar beet; Preemergence, Rate 250 g/ha): 0
- Sugarbeets plant response rating (sugar beet; Preemergence, Rate 500 g/ha): 4
- Sugarbeets plant response rating (sugar beet; Rate 62 g/ha, Postemergence): 0
- Plant response rating, Soybean (soybean; [2]): 2
- Soybean plant response rating (soybean; Postemergence, Rate 500 g/ha): 3
- Plant response rating, Soybean (soybean; [3]): 0
- Soybean plant response rating (0 to 10 scale) (soybean; Preemergence, Rate 125 g/ha): 0
- Soybean plant response rating (soybean; Preemergence, Rate 250 g/ha): 0
- Soybean plant response rating (soybean; Preemergence, Rate 500 g/ha): 3
- Soybean plant response rating (soybean; Rate 62 g/ha, Postemergence): 2
- Plant response rating, Corn (corn; [1]): 0
- Plant response rating, Corn (corn; [2]): 0
- Corn plant response rating (corn; Postemergence, Rate 500 g/ha): 0
- Plant response rating, Corn (corn; [3]): 0
- Corn plant response rating (0 to 10 scale) (corn; Preemergence, Rate 125 g/ha): 0
- Corn plant response rating (corn; Preemergence, Rate 250 g/ha): 0
- Corn plant response rating (corn; Preemergence, Rate 500 g/ha): 4
- Corn plant response rating (corn; Rate 62 g/ha, Postemergence): 0
- Plant response rating, Crabgrass (crabgrass; [1]): 3
- Plant response rating, Crabgrass (crabgrass; [2]): 4
- Crabgrass plant response rating (crabgrass; Postemergence, Rate 500 g/ha): 7
- Plant response rating, Crabgrass (crabgrass; [3]): 1
- Crabgrass plant response rating (0 to 10 scale) (crabgrass; Preemergence, Rate 125 g/ha): 2
- Crabgrass plant response rating (crabgrass; Preemergence, Rate 250 g/ha): 9
- Crabgrass plant response rating (crabgrass; Preemergence, Rate 500 g/ha): 10
- Crabgrass plant response rating (crabgrass; Rate 62 g/ha, Postemergence): 0
- Plant response rating, Wheat (wheat; [2]): 0
- Wheat plant response rating (wheat; Postemergence, Rate 500 g/ha): 0
- Plant response rating, Wheat (wheat; [3]): 0
- Wheat plant response rating (0 to 10 scale) (wheat; Preemergence, Rate 125 g/ha): 0
- Wheat plant response rating (wheat; Preemergence, Rate 250 g/ha): 0
- Wheat plant response rating (wheat; Preemergence, Rate 500 g/ha): 0
- Wheat plant response rating (wheat; Rate 62 g/ha, Postemergence): 0
- Plant response rating, Bedstraw (bedstraw; [2]): 5
- Bedstraw plant response rating (bedstraw; Postemergence): 7
- Bedstraw plant response rating (bedstraw; Preemergence): 10
- Plant response rating, Wild oats (wild oat; [2]): 0
- Wild oats plant response rating (wild oat; Postemergence, Rate 500 g/ha): 0
- Plant response rating, Wild oats (wild oat; [3]): 0
- Wild oats plant response rating (0 to 10 scale) (wild oat; Preemergence, Rate 125 g/ha): 0
- Wild oats plant response rating (wild oat; Preemergence, Rate 250 g/ha): 1
- Wild oats plant response rating (wild oat; Preemergence, Rate 500 g/ha): 4
- Wild oats plant response rating (wild oat; Rate 62 g/ha, Postemergence): 0
- Plant response rating, Nutsedge (purple nutsedge; [2]): 0
- Nutsedge plant response rating (purple nutsedge; Postemergence, Rate 500 g/ha): 0
- Plant response rating, Nutsedge (purple nutsedge; [3]): 0
- Nutsedge plant response rating (0 to 10 scale) (purple nutsedge; Preemergence, Rate 125 g/ha): 0
- Nutsedge plant response rating (purple nutsedge; Preemergence, Rate 250 g/ha): 0
- Nutsedge plant response rating (purple nutsedge; Preemergence, Rate 500 g/ha): 0
- Nutsedge plant response rating (purple nutsedge; Rate 62 g/ha, Postemergence): 0
